{
  "source": "patent US20150126464A1",
  "about": "“THERAPEUTIC DRUG AND THERAPEUTIC METHOD FOR NEUROLOGICAL DISEASES INCLUDING ALZHEIMER'S DISEASE ASSOCIATED WITH 1,25D3-MARRS” (priority 2013, published 2015)",
  "key": {"[1]": {"system": "rat cortical neurons (SD E18)", "assay": "Measurement of axon density in cortical neurons with or without 1,25D3-MARRS knockdown", "details": "1 μM, 4 days, vs vehicle; for density of pNF-H-positive axons per MAP2-positive neuron, control groups: control (no 1,25D3-MARRS knockdown) cortical neurons; for density of pNF-H-positive axons per MAP2-positive neuron, 1,25D3-MARRS knockdown groups: neurons transfected with siRNA for 1,25D3-MARRS (400 nM)", "excerpt": "siRNAs were transfected into rat cortical neurons (SD E18) according to the manufacturer's protocol for nucleofection (Lonza, Bazel, Switzerland). […] Two days after the transfection, the cells were fixed and double-immunostained with a monoclonal antibody against a neuron marker MAP2a/2b (1:500, NeoMarker, Fremont, Calif., USA) and Ab099 clone, a specific antibody for 1,25D3-MARRS (1:500, provided by Dr. Nemere).\nTwelve to fourteen images were captured. The lengths of the pNF-H-positive axons were measured using an image analyzer Neurocyte (Kurabo), which automatically traces and measures neurite length without measuring the cell bodies. The sum of the axon lengths was divided by the number of MAP2-positive neurons.\n1,25D3-MARRS was knocked down using siRNA transfection. […] Two days after the siRNA transfection, denosomin (1 μM) or a vehicle solution was applied to the cells. Further, after 4-day incubation, the cells were double-immunostained for pNF-H and MAP2 to measure the axonal length per neuron."}, "5XFAD mice [2]": {"system": "5XFAD mice", "assay": "Novel object recognition test in 5XFAD mice (Alzheimer's disease model)", "type": "in vivo, mouse", "source_text": "Transgenic mice (5XFAD) as an animal model of AD were obtained from the Jackson Laboratory (Bar Harbor, Me., USA). The 5XFAD mice overexpress human APP695 cDNA having Swedish mutation (K670N and M671L), Florida mutation (I716V) and London mutation (V717I) and human PS1 cDNA (M146L and L286V) under the transcriptional control of the neuron-specific mouse Thy-1 promoter (Oakley, H. et al., J Neurosci, 26, 10129-10140, 2006). They were maintained by crossing hemizygous transgenic mice with B6/SJL F1 breeders.\nTo investigate the effect of diosgenin on 5XFAD, hemizygous 5XFAD mice (female, 6 to 8 months old) and non-transgenic littermate wild-type mice (female, 6 to 8 months old) were used. These mice were obtained by crossing hemizygous 5XFAD mice and B6/SJL F1 mice. All mice were housed with free access to food and water and were kept in a controlled environment (22±2° C., 50±5% humidity, 12-h light/dark cycle starting at 7:00 am).\nDiosgenin was dissolved in dimethyl sulfoxide (DMSO) at 10 times the final concentration to give a stock solution. The stock solution was diluted in physiological saline to the final concentration immediately before treatment. The diosgenin solution was intraperitoneally administered to 5XFAD mice once a day (10 μmol/kg=4.14 mg/kg) for 20 days. On the last day of administration (Day 20), each mouse was housed in a separate open-field box made of polyvinyl chloride (33 cm×[…]; height: 26.5 cm) and habituated to the environment for 10 min. […]\nFor each mouse of Example 1, Comparative Examples 1 and 2, and Reference Example 1, the path during the 10-minute habituation was tracked using a digital camera system. The distance each mouse traveled during the 10 minutes was analyzed as locomotion activity with EthoVision 3.0 (Noldus, Wageningen, The Netherlands). […] In the present invention, the ratio (%) of the exploration time for the novel object to the total exploration time was calculated as an exploration preferential index. […]"}, "normal mice": {"system": "normal mice", "assay": "Novel object recognition test in normal mice", "type": "in vivo, mouse", "details": "normal ddY mice, dioscin 30 μmol/kg/day orally 4 days", "procedure": "Diosgenin (Wako Pure Chemical Industries, Ltd., Osaka, Japan) was dissolved in ethanol at 10 times the final concentration to give a stock solution, and the stock solution was diluted in a 5% aqueous solution of glucose to the final concentration. The diosgenin solution was intraperitoneally administered to normal mice (ddY mice, male, 6 weeks old) once a day (10 μmol/kg/day) for 5 or 6 days. One hour after the last administration, each mouse was housed in a separate open-field box made of polyvinyl chloride (33 cm×28 cm; height: 26.5 cm), habituated to the environment for 10 minutes, and used in the test.\nUsing the mice of Example 8 and Comparative Example 11, a novel object recognition test was performed to evaluate the object recognition memory. Testing was carried out in a dimly illuminated room (100 lux). The test was performed as described in Joyashiki, E. et sl., Int J Neurosci, 121, 181-190, 2011 and Tohda, C. et al., Int J Neurosci, 121, 641-648, 2011, written by the inventors and others, except that the time interval between a training session and a test session was 48 hours. As a locomotion index, the path of each mouse was tracked using a digital camera system. The distance each mouse traveled during the 10 minutes was analyzed as locomotion activity with EthoVision 3.0 (Noldus, Wageningen, The Netherlands).\nThe diosgenin solution was intraperitoneally administered to normal mice (C57BL/6, male, 8 weeks old) (100 μmol/kg/day) for 14 days. On the day after the 14th administration, the mice were used in the test.\nUsing the mice of Example 9 and Comparative Example 12, the novel object recognition test was performed. The test was performed under the conditions as described above.\nDioscin in an amount of 30 μmol/kg/day was orally administered to normal mice (ddY mice, male, 6 weeks old) for 4 days. Dioscin (Chromadex, Irvine, Calif., USA) was dissolved in ethanol at 10 times the final concentration to give a stock solution, and the stock solution was diluted in a 5% aqueous solution of glucose to the final concentration. […]"}, "[3]": {"assay": "Body weight during dioscin administration", "type": "in vivo, mouse", "procedure": "Dioscin in an amount of 30 μmol/kg/day was orally administered to normal mice (ddY mice, male, 6 weeks old) for 4 days. Dioscin (Chromadex, Irvine, Calif., USA) was dissolved in ethanol at 10 times the final concentration to give a stock solution, and the stock solution was diluted in a 5% aqueous solution of glucose to the final concentration. One hour after the last administration, the mice were used in the test.\nDioscin (30 μmol/kg/day) was orally administered to 5XFAD mice (male, 20 weeks old) for 6 days. One hour after the last administration, the training session was initiated."}, "5XFAD mice [4]": {"system": "5XFAD mice", "assay": "Immunohistochemistry of brain slices of 5XFAD mice (amyloid plaques, PHF-tau, abnormal axons, presynapses)", "type": "in vivo, mouse", "details": "vs vehicle-treated 5XFAD, diosgenin 10 μmol/kg, memantine hydrochloride 200 μmol/kg/day i.p. 20 days", "procedure": "One day after the novel object recognition test, the mice were anesthetized and transcardially perfused with cold physiological saline. The brains were carefully removed from the skull, immediately immersed in 10 to 30% sucrose-PBS and stored at -80° C. The brains were cut in 20-μm successive coronal slices every 100 μm in the parietal area (bregma 1.4-2 mm) sections using a cryostat (C[…], Leica, Heidelberg, Germany). The slices were fixed with 4% paraformaldehyde and stained with a polyclonal antibody against Aβ (1-40/42) (1:300) (Chemicon, Temecula, Calif., USA), a monoclonal antibody against pNF-H (1:500) (Covance, Emeryville, Calif., USA), a monoclonal antibody against synaptophysin (1:500) (Sigma-Aldrich), and a monoclonal antibody against PHF-tau (Thermo Scientific, Rockford, Ill., USA) at 4° C. for 20 hours. […] Three successive brain slices of the frontal cortex and five successive slices of the hippocampus were captured from a mouse for quantification. Extracellular amyloid plaques were determined by the size (greater than 50 μm in width), and the area of amyloid plaques was measured using the image analyzing software ImageJ. The area of the pNF-H-positive abnormal bulb-like axons was measured using ImageJ for every amyloid plaque in the fluorescent images (324 μm×430 μm). The areas of the synaptophysin-positive presynaptic boutons in every amyloid plaque were measured in fluorescent images (324 μm×430 μm) using Image J. The areas of PHF-tau in every amyloid plaque and outer amyloid plaques were measured in fluorescent images (324 μm×430 μm) using ImageJ."}},
  "note": "Structures can show the parent of a compound that is named as a salt.",
  "data": [
    {"smiles": "C[C@@H]([C@H]1CC[C@H]2[C@@H]3CC=C4C[C@@H](O)CC[C@]4(C)[C@H]3CC[C@]12C)[C@H]1CC=C(CO)C(=O)O1", "note": "[denosomin]", "values": [
      {"measurement": "density of pNF-H-positive axons per MAP2-positive neuron, control groups", "setting": "[1]", "result": "significantly increased"},
      {"measurement": "density of pNF-H-positive axons per MAP2-positive neuron, 1,25D3-MARRS knockdown groups", "setting": "[1]", "result": "almost completely inhibited"}
    ]},
    {"smiles": "C[C@@H]1CC[C@@]2(OC1)O[C@H]1C[C@H]3[C@@H]4CC=C5C[C@@H](O[C@@H]6O[C@H](CO)[C@@H](O[C@@H]7O[C@@H](C)[C@H](O)[C@@H](O)[C@H]7O)[C@H](O)[C@H]6O[C@@H]6O[C@@H](C)[C@H](O)[C@@H](O)[C@H]6O)CC[C@]5(C)[C@H]4CC[C@]3(C)[C@H]1[C@@H]2C", "note": "[dioscin]", "values": [
      {"measurement": "behavior index of exploratory behavior for the novel object", "setting": "5XFAD mice [2]; dioscin 30 μmol/kg/day orally 6 days, one hour training-test interval", "result": "higher than 50%"},
      {"measurement": "behavior index of exploratory behavior for the novel object", "setting": "normal mice", "result": "higher than 50%"},
      {"measurement": "body weight", "setting": "[3]; 5XFAD mice, dioscin 30 μmol/kg/day orally 6 days", "result": "None of the groups showed marked change"},
      {"measurement": "transition of body weight", "setting": "[3]; normal ddY mice, dioscin 30 μmol/kg/day orally 4 days", "result": "no significant difference"}
    ]},
    {"smiles": "C=C1/C(=C\\C=C2/CCC[C@]3(C)[C@@H]([C@H](C)CCCC(C)(C)O)CC[C@@H]23)C[C@@H](O)C[C@@H]1O", "note": "[DHVD3, 1α,25-dihydroxy vitamin D3, reference compound]", "values": [
      {"measurement": "density of pNF-H-positive axons per MAP2-positive neuron, control groups", "setting": "[1]", "result": "significantly increased"},
      {"measurement": "density of pNF-H-positive axons per MAP2-positive neuron, 1,25D3-MARRS knockdown groups", "setting": "[1]", "result": "did not show any difference"}
    ]},
    {"smiles": "CC12CC3CC(C)(C1)CC(N)(C3)C2", "note": "[memantine, Memantine hydrochloride, reference compound]", "values": [
      {"measurement": "area of abnormal axons (swollen axon area) per amyloid plaque in the cerebral cortex", "setting": "5XFAD mice [4]", "result": "not significantly reduced"},
      {"measurement": "area of abnormal axons (swollen axon area) per amyloid plaque in the hippocampus", "setting": "5XFAD mice [4]", "result": "inversely significantly increased"},
      {"measurement": "total area of PHF-tau in the cerebral cortex", "setting": "5XFAD mice [4]", "result": "not significantly different"},
      {"measurement": "total area of PHF-tau in the hippocampus", "setting": "5XFAD mice [4]", "result": "inversely significantly increased"},
      {"measurement": "total area of amyloid plaques in the hippocampus", "setting": "5XFAD mice [4]", "result": "significantly reduced in the hippocampus"},
      {"measurement": "novel object preferential index (exploration preferential index), test session", "setting": "5XFAD mice [2]; i.p. once a day for 20 days, diosgenin 10 μmol/kg, memantine hydrochloride 200 μmol/kg/day, 30 min training-test interval", "result": 50, "unit": "%"}
    ]}
  ]
}
